Test results from PubChem BioAssay (NCI).
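Exposure lasted 48 hours, with cells grown in 96-well plates and compounds tested at five concentrations. TGI denotes the concentration required for complete inhibition of growth.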

How the values were obtained:
Assay in all cases: NCI anticancer screen, dose series, 48 h
OVCAR-5 ovarian = tested on: OVCAR-5 ovarian
HCT-116 colon = tested on: HCT-116 colon
SK-OV-3 ovarian = tested on: SK-OV-3 ovarian
BT-549 breast = tested on: BT-549 breast
DU-145 prostate = tested on: DU-145 prostate
SNB-75 CNS = tested on: SNB-75 CNS
SF-268 CNS = tested on: SF-268 CNS
COLO 205 colon = tested on: COLO 205 colon
K-562 leukemia = tested on: K-562 leukemia
M14 melanoma = tested on: M14 melanoma
MDA-MB-435 = tested on: MDA-MB-435
SK-MEL-2 melanoma = tested on: SK-MEL-2 melanoma
PC-3 prostate = tested on: PC-3 prostate
SNB-19 CNS = tested on: SNB-19 CNS
HOP-62 NSCLC = tested on: HOP-62 NSCLC
IGROV1 ovarian = tested on: IGROV1 ovarian
NCI-H460 lung = tested on: NCI-H460 lung
MOLT-4 leukemia = tested on: MOLT-4 leukemia
SR leukemia = tested on: SR leukemia
SF-295 CNS = tested on: SF-295 CNS
SN12C renal = tested on: SN12C renal
RPMI-8226 leukemia = tested on: RPMI-8226 leukemia
MCF7 breast = tested on: MCF7 breast
HL-60(TB) leukemia = tested on: HL-60(TB) leukemia
CAKI-1 renal = tested on: CAKI-1 renal
KM12 colon = tested on: KM12 colon
A549 NSCLC = tested on: A549 NSCLC
786-0 renal = tested on: 786-0 renal
CCRF-CEM leukemia = tested on: CCRF-CEM leukemia
MDA-N = tested on: MDA-N
MDA-MB-231 breast = tested on: MDA-MB-231 breast
U251 CNS = tested on: U251 CNS
T-47D breast = tested on: T-47D breast
SW-620 colon = tested on: SW-620 colon
SF-539 CNS = tested on: SF-539 CNS
UO-31 renal = tested on: UO-31 renal
OVCAR-3 ovarian = tested on: OVCAR-3 ovarian
NCI/ADR-RES ovarian = tested on: NCI/ADR-RES ovarian
SK-MEL-5 melanoma = tested on: SK-MEL-5 melanoma
EKVX NSCLC = tested on: EKVX NSCLC
UACC-257 melanoma = tested on: UACC-257 melanoma
RXF 393 renal = tested on: RXF 393 renal
SK-MEL-28 melanoma = tested on: SK-MEL-28 melanoma
HCC-2998 colon = tested on: HCC-2998 colon
A498 renal = tested on: A498 renal
TK-10 renal = tested on: TK-10 renal
HT29 colon = tested on: HT29 colon
MALME-3M melanoma = tested on: MALME-3M melanoma
OVCAR-8 ovarian = tested on: OVCAR-8 ovarian
ACHN renal = tested on: ACHN renal
UACC-62 melanoma = tested on: UACC-62 melanoma
HS 578T breast = tested on: HS 578T breast
NCI-H226 lung = tested on: NCI-H226 lung
HCT-15 colon = tested on: HCT-15 colon
OVCAR-4 ovarian = tested on: OVCAR-4 ovarian
HOP-92 NSCLC = tested on: HOP-92 NSCLC
NCI-H23 lung = tested on: NCI-H23 lung
LOX IMVI melanoma = tested on: LOX IMVI melanoma
NCI-H522 lung = tested on: NCI-H522 lung

Measured: TGI

O=C1CCCCC/C1=C\c1ccc([N+](=O)[O-])cc1
73.2 µM: OVCAR-3 ovarian
54.6 µM: 786-0 renal
37.6 µM: KM12 colon
94.4 µM: HL-60(TB) leukemia
59.9 µM: CAKI-1 renal
82 µM: SF-268 CNS
79.7 µM: UO-31 renal
62.5 µM: SF-539 CNS
37.9 µM: MDA-MB-231 breast
70.5 µM: CCRF-CEM leukemia
59.6 µM: SN12C renal
39.4 µM: NCI-H460 lung
77.7 µM: HT29 colon
54.9 µM: UACC-257 melanoma
57.6 µM: HCT-116 colon
54.3 µM: BT-549 breast
33.1 µM: HCC-2998 colon
74.4 µM: TK-10 renal
97 µM: RPMI-8226 leukemia
92.9 µM: SR leukemia
34.5 µM: IGROV1 ovarian
43.7 µM: SK-MEL-5 melanoma
55 µM: ACHN renal
49.2 µM: COLO 205 colon
not listed: HS 578T breast | NCI-H226 lung | HCT-15 colon | OVCAR-4 ovarian | HOP-92 NSCLC | NCI-H23 lung | LOX IMVI melanoma | NCI-H522 lung
> 100 µM: all other assays above

COc1ccc(CC(N)c2ccc(OC)cc2)cc1 (configuration not stated)
36.9 µM: COLO 205 colon
83 µM: RPMI-8226 leukemia
35 µM: HCC-2998 colon
not listed: SK-MEL-2 melanoma | SR leukemia | SF-539 CNS
> 100 µM: all other assays above
